# Test results taken from US20150065421A1, “BASAL INSULIN THERAPY” (SANOFI, priority 2012, published 2015).
# Legend:
# Format in all cases: in vivo, human
# [1] = system: participants without diabetes at randomization (IFG and/or IGT); test: ORIGIN trial: new type 2 diabetes in participants without baseline diabetes (oral glucose tolerance tests)
# Source text: (§1) Participants were asked to self-administer daily subcutaneous saline injections and to check their capillary glucose levels during a 10 day run-in period. Adherent participants were then provided with lifestyle advice and randomly allocated to either insulin glargine (Lantus™) or standard approaches to glycaemic control. Participants allocated to insulin glargine who were also taking a thiazolidinedione stopped that medication at the time of randomization; otherwise the insulin glargine was added to their glycemic regimen. These participants were instructed to inject insulin glargine in the evening, starting at 2, 4 or 6 units (depending on their initial FPG) and to increase the dose at least once per week targeting a self-measured FPG level ≦5.3 mmol/l (95 mg/dl) and ≧4 mmol/l (72 mg/dl). […] If participants developed uncontrolled hyperglycemia, investigators were permitted to add rapid-acting insulin. No other glucose-lowering medication could be added or increased. FPG levels were measured in the local laboratory at every visit and the results were regularly reviewed along with the dose of insulin to ensure that insulin was being effectively trirated. People not diagnosed with diabetes by the time of the penultimate study visit down-titrated insulin glargine by 10 units per day and stopped any metformin that was prescribed.
# There were 2 co-primary composite CV outcomes. The first was CV death, non-fatal MI or non-fatal stroke, and the second was a composite of any of these events or a revascularization procedure or hospitalization for heart failure. Secondary outcomes included a composite microvascular outcome comprising a doubling of serum creatinine from baseline, progression of albuminuria category from normoalbuminuria or microalbuminuria to microalbuminuria or overt nephropathy, renal replacement therapy, renal death, retinal photocoagulation or vitrectomy for retinopathy. They also included new type 2 diabetes developing by the time of the 1st post-trial oral glucose tolerance test in participants without baseline diabetes, and all-cause mortality. Other outcomes included incident cancers, CV hospitalizations, and angina. Cardiovascular and cancer outcomes were reviewed by adjudicators masked to treatment allocation. Episodes of hypoglycaemia since the prior visit were recorded at each visit. Symptomatic hypoglycemia was classified as confirmed if a concomitant recorded capillary glucose level was <3 mmol/L (54 mg/dL). Severe hypoglycemia was defined as hypoglycemia that required assistance plus either prompt recovery with glucose or glucagon or a documented capillary glucose ≦2.0 (36 mg/dL). New diabetes was diagnosed if 2 consecutive FPG levels within a 4-month period were ≧7 mM (126 mg/dL) during the trial; a diagnosis of diabetes was made by a physician and a pharmacologic antidiabetic agent was being taken and there was evidence of either a FPG ≧7 mM (126 mg/dL) or any glucose value ≧11.1 mM (200 mg/dL); either 1 or more capillary glucose levels were ≧11.1 mM (200 mg/dl) and a lab-measured FPG was ≧7 mmol/l (126 mg/dl) or a lab measured random glucose level was ≧11.1 mM (200 mg/dl) during down-titration of glargine insulin; or any FPG was ≧7 mM (126 mg/dl) or 2 hour plasma glucose was ≧11.1 mM (200 mg/dl) during the first oral glucose tolerance test.
# Data were analyzed using SAS (version 9.1 for Solarus) according to an intention-to-treat approach described in the protocol and a predefined statistical analysis plan. […] Baseline characteristics were summarized using means and standard deviatons, medians and interquartile ranges, or counts and percentages as appropriate. Time-to-event curves were constructed using product limit estimation and compared using stratified log-rank tests. Hazard ratios for each outcome were calculated using Cox regression models adjusted for the factorial allocation, baseline diabetes status and a history of a prior CV event before randomization as described in the protocol. […]
# [2] = system: people at high risk for vascular disease with either IFG, IGT, or early type 2 diabetes; test: ORIGIN trial: cognition outcomes (Mini-Mental Status Exam)
# Source text: Defined by serial cognitive testing (e.g., mini-mental status examination [MMSE]).
# Overall, there was a strong trend (p=0.075) for glargine treatment to be associated with fewer impaired patients. The data, as summarized in Table 7, reflect the Mini-Mental Status Exam (MMSE) data for the number of participants scoring 24 or less at various timepoints (mild impairment). These patients were examined because they represent those at greater risk of further deterioration during the study, and still with enough patients to confer adequate power to make statistical comparisons. There was a significant reduction of cases of mild impairment from baseline at about 4 years.
# [3] = system: people at high risk for vascular disease with either IFG, IGT, or early type 2 diabetes; test: ORIGIN trial: cardiovascular, mortality and cancer outcomes
# Source text: The ORIGIN study was an international, multicenter, randomized, open-label (for insulin glargine versus standard care), double-blind (for omega-3 PUFA versus placebo), 2×2 factorial design study to evaluate whether patients with IGT, IFG, or early T2DM, who were at high risk for macrovascular events, could be safely treated with insulin glargine and omega-3 PUFA, and if either insulin glargine-mediated normoglycemia and/or omega-3 PUFA reduce or prevent CV morbidity and/or mortality. Patients were randomized to either receive insulin glargine treatment as a titrated regimen which targeted fasting plasma glucose (FPG) of 95 mg/dL or standard care according to current guidelines for dysglycemia accompanied by appropriate lifestyle modifications. Patients were also independently randomized to receive either ethyl esters of omega-3 PUFA or matching placebo.
# Patients were to be randomly assigned to receive either insulin glargine treatment or standard care for their dysglycemia. Patients randomized to the insulin glargine group received Lantus® (insulin glargine 100 U/mL solution) once daily (QD) by subcutaneous (SC) injection in a titrated regimen targeting an FPG of […] (5.3 mmol/L). Nondiabetic patients randomized to standard care were followed for the development of diabetes, and were encouraged to continue to modify diet and physical activity levels. Blood glucose management of diabetic patients (or nondiabetic patients who developed diabetes during the study) randomized to standard care was to be performed according to current (at that time) guidelines. All patients were to be encouraged to appropriately modify their lifestyle.
# ORIGIN was an international randomized factorial trial of the effect of titrated basal insulin therapy versus standard care and of omega 3 fasty acid supplements versus placebo on incident CV outcomes. Results of the omega 3 fatty acid arm are reported separately (REF). […] The HbA1c level of people with prior diabetes had to be low enough to minimize the likelihood that insulin would be needed to maintain glycemic control during follow-up if allocated to standard care. Key exclusion criteria included unwillingess or an inability to inject insulin or do capillary glucose testing, a clear indication for, or intolerance to insulin or omega 3 fatty acids, unwillingness to stop thiazolidinediones if allocated to glargine, heart failure, or coronary artery bypass surgery within the prior 4 years with no intervening CV event. The study was approved by each site's ethics committee and all participants provided written informed consent.
# as §1
# There were 2 co-primary composite CV outcomes. […]
# [4] = glargine group, 6-7 years exposure, p=0.02 vs standard care
# [5] = insulin glargine group, median follow-up 6.2 years
# [6] = insulin glargine vs standard care
substance,measurement,setting,value
(Gly A21) Arg (B31) Arg (B32) human insulin [insulin glargine],reduction of incidence of new diabetes including suspected cases,"[1]; confirmed plus suspected, unconfirmed cases",30%
same,OR for protocol-defined new diabetes,"[1]; glargine vs standard care, 95% CI 0.58, 0.92, P=0.007",0.73
same,OR for new diabetes after 2nd OGTT,"[1]; glargine vs standard care, 95% CI 0.64, 1.00, P=0.052",0.80
same,incidence of new diabetes including suspected cases,[1]; insulin glargine group,35%
same,total rate of diabetes after repeated (2nd) OGTT,"[1]; insulin glargine group, median 100 days after insulin was stopped",30%
same,participants developing protocol-defined diabetes,"[1]; insulin glargine group, up to 1st post-trial OGTT",25%
same,less likely to develop protocol-defined diabetes than standard care participants,[1]; up to 1st post-trial OGTT,27%
same,"participants scoring 24 or less in MMSE (mild impairment), N (%)","[2]; 2 years, P 0.823 vs standard, baseline 483 (7.7)",433 (7.6) N (%)
same,"participants scoring 24 or less in MMSE (mild impairment), N (%)","[2]; Any measure, P 0.075 vs standard",605 (10.4) N (%)
same,"participants scoring 24 or less in MMSE (mild impairment), N (%)","[2]; End of study, P 0.358 vs standard",464 (9.6) N (%)
same,"participants scoring 24 or less in MMSE (mild impairment), N (%)","[2]; ~4 years, P 0.022 vs standard",449 (9.0) N (%)
same,patients who developed a new angina (number),[3]; [4],100 patients
same,patients who developed a new angina (percent),[3]; [4],1.6%
same,"incidence of the composite outcome of nonfatal MI, nonfatal stroke or CV death (first co-primary outcome)",[3]; [5],2.94 /100 person-years
same,incidence of the second co-primary outcome (first plus revascularization or heart failure hospitalization),[3]; [5],5.53 /100 person-years
same,"incidence of any cancer or cancer death, difference to standard care",[3]; [6],no difference
same,"mortality, difference to standard care",[3]; [6],no statistically significant difference
same,"adjusted HR, first co-primary outcome","[3]; insulin glargine vs standard care, 95% CI 0.88, 1.12, P=0.9",0.99
same,"adjusted HR, second co-primary outcome","[3]; insulin glargine vs standard care, 95% CI 0.91, 1.10, P=0.99",1.00
